Experimental data taken from patent EP2002836B1, “Cyclocondensed azaindoles active as kinase inhibitors” (Nerviano Medical Sciences S.r.l., priority 2007, dated 2008).

These compounds were tested against AKT1 (Homo sapiens, UniProt P31749) (assay: FABS-NMR screening (3-FABS, 19F-labelled AKTide-like substrate) on AKT-1). Conditions: 25 nM protein, 30 µM substrate, 1.5 mM ATP; read-out: AKT1 IC50 (µM) FABS NMR assay.
Assay type: biochemical
Parameters: The active human Ser-Thr protein kinase AKT-1 Full Length was expressed as GST fusion protein; GST (cleaved yes); made in house; host or cells: insect cells
Procedure: The biochemical functional NMR screening on the proteins kinase AKT-1 and PKA was performed using the 3-FABS (3-Fluorine Atoms for Biochemical Screening) technique developed by C. Dalvit and the NMR group in house (C. Dalvit et al 2003 J. Am. Chem. Soc. 125 (47): 14620).
The method require the use of a ^19F-labelled substrate. The same commercial peptide was used as substrate in both enzymatic reaction: the Tyr just before the phosphorilation site in the AKTide peptide was mutated in a 3-tryfluormethyl-Phe by Bachem.
The AKTide like peptide sequence is reported below: • H-Ala-Arg-Lys-Arg-Glu-Arg-Ala-F(3-CF3)-Ser-Phe-Gly-His-His-Ala-OH
The active human Ser-Thr protein kinase AKT-1 Full Length was expressed as GST fusion protein in insect cells and then the GST was cleaved with PreScission protease. The active cycled AMP-dependent human protein kinase A PKA was expressed as polyHis-tag protein in E.Coli and purified by affinity column.
Reactions were performed in an end point format in eppendorf of 0.5 ml using the buffer solution 50mM Tris, pH 7.5, 5mM MgCl2, 1mM DTT, 8% D2O and 0.001% Triton-X-100; the final volume was of 560 µl. The substrate and protein concentration were of 30 µM and 25 nM respectively. The reactions were performed using an ATP concentration of about 9 times its KM: 150 µM in the test with PKA and 1.5 mM in the AKT-1 experiments. A sample in absence of inhibitor was run as control in order to follow the ongoing of the reaction and it represents the 0% inhibition. Different concentration compound stock solutions in DMSOd6 were made in order to add the same amount of DMSOd6 in each sample: usually the compounds stock were of 0.03, 0.2, 2, and 10 mM. 0.56 µl of these solution was added in each sample in order to reach the final compounds concentration of 30 nM, 200 nM 2 µM and 10 µM respectively; 0.56 µl of DMSOd6 was added in the control too. The reactions were quenched after about 100/120 minutes with 10 mM of Staurosporine (Sigma code:S4400), transferred into the 5 mm NMR tube (Cortec code: NE-MP5-8) and put onto the Sample Management System (SMS) autosampler for automatic data collection. The spectra were recorded using the Varian Inova 600 MHz NMR spectrometer operating at a ^19F Larmor frequency of 564 MHz and using a 5mm probe with the inner coil tuned to ^19F and the outer coil tuned to H. The data were recorded without proton decoupling with a spectral width of 12000 Hz, an acquisition time of 0.8s and a relaxation delay of 2.8s. Chemical shifts are referenced to trifluoroacetic acid.
IC50 determination was achieved by measuring the substrate signal as a function of the inhibitor concentration using one of the formulas below. […] IC50 data were analyzed with non-linear least squares methods in the Origin 5.0 software package.

Sequence of AKT1 (P31749 whole entry): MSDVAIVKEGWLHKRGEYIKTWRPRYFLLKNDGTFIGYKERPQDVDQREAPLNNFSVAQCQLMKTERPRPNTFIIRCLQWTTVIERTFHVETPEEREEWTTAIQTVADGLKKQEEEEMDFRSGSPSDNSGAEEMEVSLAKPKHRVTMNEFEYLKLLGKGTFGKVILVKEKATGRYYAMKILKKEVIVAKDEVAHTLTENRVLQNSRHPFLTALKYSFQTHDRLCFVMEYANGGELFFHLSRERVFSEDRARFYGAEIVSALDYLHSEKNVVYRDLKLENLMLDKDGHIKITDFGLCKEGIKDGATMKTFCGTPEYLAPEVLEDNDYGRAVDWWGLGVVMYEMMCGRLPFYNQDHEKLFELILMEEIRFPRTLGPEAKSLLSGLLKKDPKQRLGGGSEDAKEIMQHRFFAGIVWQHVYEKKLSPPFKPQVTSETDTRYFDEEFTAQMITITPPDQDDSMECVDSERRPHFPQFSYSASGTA

Compound	IC50 [µM]
NC[C@H](Cc1ccccc1)NC(=O)C1=Cc2c[nH]c3nccc(c23)CC1 [Cpd. 1, N-[(1S)-2-amino-1-benzylethyl]-6,7-dihydro-2H-2,3-diazabenzo[cd]azulene-8-carboxamide]	0.15
CC(=O)N1CC(C(=O)N[C@H](CN)Cc2ccccc2)=Cc2c[nH]c3nccc1c23 [Cpd. 3, 6-acetyl-N-[(1S)-2-amino-1-benzylethyl]-6,7-dihydro-2H-2,3,6-triazabenzo[cd]azulene-8-carboxamide]	0.76
O=C(N[C@H](CN1CCCC1)c1ccccc1)C1=Cc2c[nH]c3nccc(c23)CC1 [Cpd. 6, N-[(1S)-1-phenyl-2-pyrrolidin-1-ylethyl]-6,7-dihydro-2H-2,3-diazabenzo[cd]azulene-8-carboxamide]	0.315
NC[C@H](Cc1ccccc1)NC(=O)C1=Cc2c[nH]c3nccc(c23)NC1 [compound 2, N-[(1S)-2-amino-1-benzylethyl]-6,7-dihydro-2H-2,3,6-triazabenzo[cd]azulene-8-carboxamide]	0.03
